Each structure is given as a SMILES string. Read-outs that look alike come from different tables or passages of the source.

Our source for the IC50 values is patent US8487093B2, “β-lactamase inhibitors” (Merck Sharp & Dohme Corp., priority 2008, dated 2013).

One experiment has as its target KPC-2 (K. pneumoniae) (Klebsiella pneumoniae, UniProt Q9F663). Nature of the experiment: biochemical. The conditions noted are these: Table 3; read-out: K.p. KPC-2 IC50.
A further experiment addresses AmpC (P. aeruginosa) (Pseudomonas aeruginosa (strain ATCC 15692 / DSM 22644 / CIP 104116 / JCM 14847 / LMG 12228 / 1C / PRS 101 / PAO1), UniProt P24735). The experiment in a line: biochemical. On the procedure: The Class C enzyme activities were measured in the presence of the test inhibitor in spectrophotometric assay against the commercially available substrate, nitrocefin. The enzyme AmpC (P. aeruginosa.), and the substrate, were dissolved in 100 mM KH2PO4 buffer (pH 7). The buffer also contains 0.005% BSA. The test inhibitor was dissolved in DMSO and diluted 1:20 in the assay, resulting in a final concentration range of 50 μM to 0.0002 μM. In a 96-well microplate, the test inhibitor was incubated with the beta-lactamase enzyme for 40 minutes at ambient temperature, the substrate solution was added, and the incubation continued for another 40 minutes. […] The IC50 value was determined from semi logarithmic plots of enzyme inhibition versus inhibitor concentration, with a curve generated using a 4-parameter fit.

Setting [1] is: Table 3, read-out: P.a. AmpC IC50.

Chain of KPC-2 (K. pneumoniae) (Q9F663 25-293 limits assumed): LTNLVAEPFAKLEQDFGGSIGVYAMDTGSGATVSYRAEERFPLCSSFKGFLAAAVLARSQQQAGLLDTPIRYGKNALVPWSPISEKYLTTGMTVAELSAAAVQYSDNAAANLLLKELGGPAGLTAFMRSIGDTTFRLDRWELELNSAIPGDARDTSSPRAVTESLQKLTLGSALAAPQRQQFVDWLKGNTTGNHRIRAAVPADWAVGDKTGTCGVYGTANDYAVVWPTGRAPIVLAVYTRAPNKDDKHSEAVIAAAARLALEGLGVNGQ
Chain of AmpC (P. aeruginosa) (P24735 27-397): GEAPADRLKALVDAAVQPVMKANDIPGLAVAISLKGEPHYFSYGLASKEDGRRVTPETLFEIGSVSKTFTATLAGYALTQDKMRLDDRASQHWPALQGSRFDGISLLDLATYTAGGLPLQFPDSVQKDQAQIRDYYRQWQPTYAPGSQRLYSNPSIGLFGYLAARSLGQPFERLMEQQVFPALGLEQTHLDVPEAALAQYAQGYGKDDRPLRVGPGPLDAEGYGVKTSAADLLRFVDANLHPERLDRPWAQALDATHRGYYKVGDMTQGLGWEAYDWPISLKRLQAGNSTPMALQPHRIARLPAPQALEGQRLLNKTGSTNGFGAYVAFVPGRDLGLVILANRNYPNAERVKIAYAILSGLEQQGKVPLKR

For `CNCc1ccc(NC(=O)[C@@H]2CC[C@@H]3CN2C(=O)N3OS(=O)(=O)O)cc1` [Example 60], the IC50 on KPC-2 (K. pneumoniae) was 56 nM; at AmpC (P. aeruginosa) (setting [1]) it was 18 nM.
`CNCc1cccc(NC(=O)[C@@H]2CC[C@@H]3CN2C(=O)N3OS(=O)(=O)O)c1` [Example 61]: the concentration for half-maximal inhibition (IC50) on KPC-2 (K. pneumoniae) was found to be 78 nM; against AmpC (P. aeruginosa) it was 22 nM.
Turning to `CN(C)Cc1ccc(NC(=O)[C@@H]2CC[C@@H]3CN2C(=O)N3OS(=O)(=O)O)cc1` [Example 62], the 50% inhibitory concentration (IC50) came to 54 nM at KPC-2 (K. pneumoniae) and 18 nM at AmpC (P. aeruginosa) (setting [1]).
On the same counts, the results for `O=C(Nc1ccc(CN2CCCC2)cc1)[C@@H]1CC[C@@H]2CN1C(=O)N2OS(=O)(=O)O` [Example 63] are 85 nM and 22 nM.
In the same order, the values of `O=C(Nc1ccc2c(c1)CNC2)[C@@H]1CC[C@@H]2CN1C(=O)N2OS(=O)(=O)O` [Example 65] are 60 nM and 16 nM.
On the same counts, the results for `O=C(Nc1ccc2c(c1)CCN2)[C@@H]1CC[C@@H]2CN1C(=O)N2OS(=O)(=O)O` [Example 66] are 41 nM and 56 nM.
On to `O=C(O)c1ccc(NC(=O)[C@@H]2CC[C@@H]3CN2C(=O)N3OS(=O)(=O)O)cc1` [Example 67], for which the concentration for half-maximal inhibition (IC50) on KPC-2 (K. pneumoniae) is 10 nM; at AmpC (P. aeruginosa) (setting [1]) it was 11 nM.
In the same order, the values of `NC(=O)c1ccc(NC(=O)[C@@H]2CC[C@@H]3CN2C(=O)N3OS(=O)(=O)O)cc1` [Example 68] are 30 nM and 7 nM.
In the same order, the values of `NS(=O)(=O)c1ccc(NC(=O)[C@@H]2CC[C@@H]3CN2C(=O)N3OS(=O)(=O)O)cc1` [Example 69] are 22 nM and 7 nM.
As for `NC(=O)c1cccc(NC(=O)[C@@H]2CC[C@@H]3CN2C(=O)N3OS(=O)(=O)O)c1` [Example 70], the values for the concentration for half-maximal inhibition (IC50) on KPC-2 (K. pneumoniae) and at AmpC (P. aeruginosa) were 26 nM and 3 nM, respectively.
In the same order, the values of `O=C(Nc1cccnc1)[C@@H]1CC[C@@H]2CN1C(=O)N2OS(=O)(=O)O` [Example 71] are 42 nM and 37 nM.
With `O=C(Nc1ccccn1)[C@@H]1CC[C@@H]2CN1C(=O)N2OS(=O)(=O)O` [Example 72], the IC50 was 36 nM at KPC-2 (K. pneumoniae) and 1.2 nM at AmpC (P. aeruginosa) (setting [1]).
In the same order, the values of `O=C(Nc1cc(N2CCCC2)nc(N2CCCC2)c1)[C@@H]1CC[C@@H]2CN1C(=O)N2OS(=O)(=O)O` [Example 73] are 130 nM and 515 nM.
On the same counts, the results for `Nc1cccc(NC(=O)[C@@H]2CC[C@@H]3CN2C(=O)N3OS(=O)(=O)O)n1` [Example 74] are 11 nM and 8 nM.
In the same order, the values of `CN(C)c1ccnc(NC(=O)[C@@H]2CC[C@@H]3CN2C(=O)N3OS(=O)(=O)O)c1` [Example 75] are 410 nM and 3 nM.
As for `NCc1ccnc(NC(=O)[C@@H]2CC[C@@H]3CN2C(=O)N3OS(=O)(=O)O)c1` [Example 76], the half-maximal inhibitory concentration (IC50) on KPC-2 (K. pneumoniae) came out at 1300 nM; at AmpC (P. aeruginosa) (setting [1]), 2 nM.
In the same order, the values of `NCc1ccc(NC(=O)[C@@H]2CC[C@@H]3CN2C(=O)N3OS(=O)(=O)O)nc1` [Example 77] are 42 nM and 3 nM.
In the same order, the values of `O=C(Nc1cc(C2CCNCC2)ccn1)[C@@H]1CC[C@@H]2CN1C(=O)N2OS(=O)(=O)O` [Example 78] are 470 nM and 0.8 nM.
On to `O=C(Nc1cccc(C2CCNCC2)n1)[C@@H]1CC[C@@H]2CN1C(=O)N2OS(=O)(=O)O` [Example 79], for which the IC50 at KPC-2 (K. pneumoniae) was 24 nM; at AmpC (P. aeruginosa) (setting [1]) it was 270 nM.
On the same counts, the results for `O=C(Nc1ccc(N2CCNCC2)cn1)[C@@H]1CC[C@@H]2CN1C(=O)N2OS(=O)(=O)O` [Example 80] are 15 nM and 2 nM.
On the same counts, the results for `O=C(Nc1ccc(N2CCOCC2)cn1)[C@@H]1CC[C@@H]2CN1C(=O)N2OS(=O)(=O)O` [Example 81] are 17 nM and 5 nM.
In the case of `O=C(Nc1ccc(N2CCCC2)cn1)[C@@H]1CC[C@@H]2CN1C(=O)N2OS(=O)(=O)O` [Example 82], the values for the IC50 at KPC-2 (K. pneumoniae) and on AmpC (P. aeruginosa) (setting [1]) were 10 nM and 4 nM, respectively.
On the same counts, the results for `O=C(Nc1cnccn1)[C@@H]1CC[C@@H]2CN1C(=O)N2OS(=O)(=O)O` [Example 83] are 58 nM and 6 nM.
As to `O=C(Nc1ccncn1)[C@@H]1CC[C@@H]2CN1C(=O)N2OS(=O)(=O)O` [Example 84], the IC50 at KPC-2 (K. pneumoniae) amounted to 55 nM; on AmpC (P. aeruginosa) (setting [1]), 0.8 nM.
In the same order, the values of `O=C(Nc1ccnc(N2CCNCC2)n1)[C@@H]1CC[C@@H]2CN1C(=O)N2OS(=O)(=O)O` [Example 85] are 20 nM and 260 nM.
In the same order, the values of `Cn1ccnc1NC(=O)[C@@H]1CC[C@@H]2CN1C(=O)N2OS(=O)(=O)O` [Example 86] are 135 nM and 240 nM.
In the case of `CN1CCN=C1NC(=O)[C@@H]1CC[C@@H]2CN1C(=O)N2OS(=O)(=O)O` [Example 87], the IC50 worked out at 840 nM on KPC-2 (K. pneumoniae) and 200 nM on AmpC (P. aeruginosa) (setting [1]).
In the same order, the values of `O=C(Nc1nccs1)[C@@H]1CC[C@@H]2CN1C(=O)N2OS(=O)(=O)O` [Example 88] are 36 nM and 1.8 nM.
On the same counts, the results for `O=C(Nc1nc2c(s1)CNCC2)[C@@H]1CC[C@@H]2CN1C(=O)N2OS(=O)(=O)O` [Example 89] are 39 nM and 10 nM.
In the same order, the values of `O=C(O[C@H]1CCCNCC1)[C@@H]1CC[C@@H]2CN1C(=O)N2OS(=O)(=O)O` [Example 91] are 6 nM and 83 nM.
With `O=C(O[C@@H]1CCCNCC1)[C@@H]1CC[C@@H]2CN1C(=O)N2OS(=O)(=O)O` [Example 92], the concentration for half-maximal inhibition (IC50) on KPC-2 (K. pneumoniae) came to 6400 nM; on AmpC (P. aeruginosa) (setting [1]), 33000 nM.
On to `O=C(OC1CCNCC1)[C@@H]1CC[C@@H]2CN1C(=O)N2OS(=O)(=O)O` [Example 93], for which the half-maximal inhibitory concentration (IC50) on KPC-2 (K. pneumoniae) was 9 nM; on AmpC (P. aeruginosa), 170 nM.
On the same counts, the results for `O=C(O[C@@H]1CCNC1)[C@@H]1CC[C@@H]2CN1C(=O)N2OS(=O)(=O)O` [Example 94] are 40 nM and 3000 nM.
Take `O=C(O[C@H]1CCNC1)[C@@H]1CC[C@@H]2CN1C(=O)N2OS(=O)(=O)O` [Example 95]: the results for the 50% inhibitory concentration (IC50) at KPC-2 (K. pneumoniae) and on AmpC (P. aeruginosa) were 21 nM and 210 nM, respectively.
Turning to `O=C(OC1CNC1)[C@@H]1CC[C@@H]2CN1C(=O)N2OS(=O)(=O)O` [Example 96], the IC50 was found to be 18 nM at KPC-2 (K. pneumoniae) and 600 nM on AmpC (P. aeruginosa) (setting [1]).
On the same counts, the results for `O=C(O[C@@H]1CCNC[C@@H]1F)[C@@H]1CC[C@@H]2CN1C(=O)N2OS(=O)(=O)O` [Example 97] are 26 nM and 49 nM.
In the same order, the values of `O=C(O[C@H]1CCNC[C@H]1F)[C@@H]1CC[C@@H]2CN1C(=O)N2OS(=O)(=O)O` [Example 98] are 9 nM and 46 nM.
Turning to `O=C(O[C@@H]1CCNC[C@H]1F)[C@@H]1CC[C@@H]2CN1C(=O)N2OS(=O)(=O)O` [Example 99], the IC50 on KPC-2 (K. pneumoniae) was 8 nM; on AmpC (P. aeruginosa) (setting [1]) it was 40 nM.
On the same counts, the results for `O=C(O[C@H]1CCNC[C@@H]1F)[C@@H]1CC[C@@H]2CN1C(=O)N2OS(=O)(=O)O` [Example 100] are 4 nM and 33 nM.

Broadly, the IC50 is the concentration that inhibits the measured activity by half.
